Assay results taken from patent US9163021B2, “Pyrrolo[3,2-c]pyridine tropomyosin-related kinase inhibitors” (Pfizer Limited, priority 2012, dated 2015).

Target: TRKA (Homo sapiens (Human), UniProt P04629)
Experiment: Isolated TRK enzyme assay (HTRF KinEASE-TK), PV3144 TrkA enzyme assay
Format: biochemical
Details: arithmetic mean where more than one reading
Summary of the method: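 Kinase (recombinant His-TrkA cytoplasmic domain, ATP-preactivated 20 min) met compound 20 min, then biotinylated TK substrate (1 µM final) with Mg2+/DTT buffer; HTRF detection.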

Chain of TRKA (P04629 441-796): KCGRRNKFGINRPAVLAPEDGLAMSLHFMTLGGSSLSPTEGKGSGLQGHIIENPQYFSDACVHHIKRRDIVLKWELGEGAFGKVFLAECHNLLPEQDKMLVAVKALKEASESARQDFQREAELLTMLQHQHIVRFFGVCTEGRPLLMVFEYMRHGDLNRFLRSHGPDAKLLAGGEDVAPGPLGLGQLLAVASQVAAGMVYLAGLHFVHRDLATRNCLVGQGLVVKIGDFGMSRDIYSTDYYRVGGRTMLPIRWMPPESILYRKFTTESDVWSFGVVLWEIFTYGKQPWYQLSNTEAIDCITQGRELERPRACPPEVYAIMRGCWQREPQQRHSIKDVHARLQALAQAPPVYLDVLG

Compound | IC50
CC(C)n1cc(C(=O)c2ccnc(NC(=O)Cc3cncs3)c2)c2cnccc21 [Example 185, N-(4-{[1-(propan-2-yl)-1H-pyrrolo[3,2-c]pyridin-3-yl]carbonyl}pyridin-2-yl)-2(1,3-thiazol-5-yl)acetamide] | 1860 nM
CC(C)n1cc(C(=O)c2ccnc(NC(=O)Cc3ccc(F)cc3)c2)c2cnccc21 [Example 186, 2(4-fluorophenyl)-N-(4-{[1-(propan-2-yl)-1H-pyrrolo[3,2-c]pyridin-3-yl]carbonyl}pyridin-2-yl)acetamide] | 13.3 nM
CC(C)n1cc(C(=O)c2ccnc(NC(=O)Cc3nnn[nH]3)c2)c2cnccc21 [Example 187] | 9800 nM
CC(C)n1cc(C(=O)c2ccnc(NC(=O)Cn3cc(C(C)(C)O)nn3)c2)c2cnccc21 [Example 188] | 477 nM
CC(C)n1cc(C(=O)c2ccnc(NC(=O)Cc3coc(C4CC4)n3)c2)c2cnccc21 [Example 189, 2-(2-cyclopropyl-1,3-oxazol-4-yl)-N-(4-{[1-(propan-2-yl)-1H-pyrrolo[3,2-c]pyridin-3-yl]carbonyl}pyridin-2-yl)acetamide] | 13.6 nM
CC(C)n1cc(C(=O)c2ccnc(NC(=O)Cn3nccn3)c2)c2cnccc21 [Example 190, N-(4-{[1-(propan-2-yl)-1H-pyrrolo[3,2-c]pyridin-3-yl]carbonyl}pyridin-2-yl)-2-(2H-1,2,3-triazol-2-yl)acetamide] | 775 nM
CC(C)n1cc(C(=O)c2ccnc(NC(=O)Cc3cccc(OC(F)(F)F)c3)c2)c2cnccc21 [Example 191, N-(4-{[1-(propan-2-yl)-1H-pyrrolo[3,2-c]pyridin-3-yl]carbonyl}pyridin-2-yl)-2-[3-(trifluoromethoxy)phenyl]acetamide] | 7.41 nM
CC(C)n1cc(C(=O)c2ccnc(NC(=O)Cc3nnnn3C)c2)c2cnccc21 [Example 192, 2-(1-methyl-1H-tetrazol-5-yl)-N-(4-{[1-(propan-2-yl)-1H-pyrrolo[3,2-c]pyridin-3-yl]carbonyl}pyridin-2-yl)acetamide] | 9800 nM
CC(C)n1cc(C(=O)c2ccnc(NC(=O)Cn3cncn3)c2)c2cnccc21 [Example 193, N-(4-{[1-(propan-2-yl)-1H-pyrrolo[3,2-c]pyridin-3-yl]carbonyl}pyridin-2-yl)-2-(1H-1,2,4-triazol-1-yl)acetamide] | 10100 nM
O=C(Cc1cccc(OC(F)(F)F)c1)Nc1cc(C(=O)c2cn(C3COC3)c3ccncc23)ccn1 [Example 194, N-(4-{[1-(oxetan-3-yl)-1H-pyrrolo[3,2-c]pyridin-3-yl]carbonyl}pyridin-2-yl)-2-[3-(trifluoromethoxy)phenyl]acetamide] | 13.8 nM
N#Cc1ccc(CC(=O)Nc2cc(C(=O)c3cn(C4COC4)c4ccncc34)ccn2)cc1 [Example 195, 2-(4-cyanophenyl)-N-(4-{[1-(oxetan-3-yl)-1H-pyrrolo[3,2-c]pyridin-3-yl]carbonyl}pyridin-2-yl)acetamide] | 203 nM
O=C(Cc1ccc(F)cn1)Nc1cc(C(=O)c2cn(C3COC3)c3ccncc23)ccn1 [Example 196, 2-(5-fluoropyridin-2-yl)-N-(4-{[1-(oxetan-3-yl)-1H-pyrrolo[3,2-c]pyridin-3-yl]carbonyl}pyridin-2-yl)acetamide] | 1280 nM
O=C(Cc1coc(C2CC2)n1)Nc1cc(C(=O)c2cn(C3COC3)c3ccncc23)ccn1 [Example 197, 2-(2-cyclopropyl-1,3-oxazol-4-yl)-N-(4-{[1-(oxetan-3-yl)-1H-pyrrolo[3,2-c]pyridin-3-yl]carbonyl}pyridin-2-yl)acetamide] | 525 nM
O=C(Cc1ccc(F)cc1F)Nc1cc(C(=O)c2cn(C3COC3)c3ccncc23)ccn1 [Example 198, 2-(2,4-difluorophenyl)-N-(4-{[1-(oxetan-3-yl)-1H-pyrrolo[3,2-c]pyridin-3-yl]carbonyl}pyridin-2-yl)acetamide] | 105 nM
CC(C)c1cn(CC(=O)Nc2cc(C(=O)c3cn(C4COC4)c4ccncc34)ccn2)nn1 [Example 199, N-(4-{[1-(oxetan-3-yl)-1H-pyrrolo[3,2-c]pyridin-3-yl]carbonyl}pyridin-2-yl)-2-[4-(propan-2-yl)-1H-1,2,3-triazol-1-yl]acetamide] | 186 nM
Cc1oc(C2CC2)nc1CC(=O)Nc1cc(C(=O)c2cn(C3COC3)c3ccncc23)ccn1 [Example 200, 2-(2-cyclopropyl-5-methyl-1,3-oxazol-4-yl)-N-(4-{[1-(oxetan-3-yl)-1H-pyrrolo[3,2-c]pyridin-3-yl]carbonyl}pyridin-2-yl)acetamide] | 174 nM
CC(C)n1ncc(CC(=O)Nc2cc(C(=O)c3cn(C4COC4)c4ccncc34)ccn2)c1C(F)(F)F [Example 201] | 314 nM

Compound | IC50
O=C(Cc1nc(C2CC2)oc1C1CC1)Nc1cc(C(=O)c2cn(C3COC3)c3ccncc23)ccn1 [Example 202, 2-(2,5-dicyclopropyl-1,3-oxazol-4-yl)-N-(4-{[1-(oxetan-3-yl)-1H-pyrrolo[3,2-c]pyridin-3-yl]carbonyl}pyridin-2-yl)acetamide] | 437 nM
O=C(Cc1ccc(F)cc1)Nc1cc(C(=O)c2cn(C3COC3)c3ccncc23)ccn1 [Example 204, 2-(4-fluorophenyl)-N-(4-{[1-(oxetan-3-yl)-1H-pyrrolo[3,2-c]pyridin-3-yl]carbonyl}pyridin-2-yl)acetamide] | 227 nM
O=C(Nc1cc(C(=O)c2cn(C3COC3)c3ccncc23)ccn1)c1cccc(OC(F)(F)F)c1 [Example 205, N-(4-{[1-(oxetan-3-yl)-1H-pyrrolo[3,2-c]pyridin-3-yl]carbonyl}pyridin-2-yl)-3-(trifluoromethoxy)benzamide] | 33 nM
N#Cc1ccc(CC(=O)Nc2cc(C(=O)c3cn(C4COC4)c4ccncc34)ccn2)cc1C(F)(F)F [Example 221, 2-[4-cyano-3-(trifluoromethyl)phenyl]-N-(4-{[1-(oxetan-3-yl)-1H-pyrrolo[3,2-c]pyridin-3-yl]carbonyl}pyridin-2-yl)acetamide] | 138 nM
CC(CO)n1cc(C(=O)c2cc(NC(=O)Cc3ccc(C(F)(F)F)cc3)ccn2)c2cnccc21 (stereo not drawn) [Example 230, N-(2-{[1-(1-hydroxypropan-2-yl)-1H-pyrrolo[3,2-c]pyridin-3-yl]carbonyl}pyridin-4-yl)-2-[4-(trifluoromethyl)phenyl]acetamide] | 18.1 nM
CC(C)(CO)n1cc(C(=O)c2cc(NC(=O)Cc3ccc(C(F)(F)F)cc3)ccn2)c2cnccc21 [Example 231, N-(2-{[1-(1-hydroxy-2-methylpropan-2-yl)-1H-pyrrolo[3,2-c]pyridin-3-yl]carbonyl}pyridin-4-yl)-2-[4-(trifluoromethyl)phenyl]acetamide] | 12.8 nM
CC(C)(CO)n1cc(C(=O)c2cc(NC(=O)Cc3cccc(C(F)(F)F)c3)ccn2)c2cnccc21 [Example 232, N-(2-{[1-(1-hydroxy-2-methylpropan-2-yl)-1H-pyrrolo[3,2-c]pyridin-3-yl]carbonyl}pyridin-4-yl)-2-[3-(trifluoromethyl)phenyl]acetamide] | 11.3 nM
CC(C)n1cc(C(=O)c2ccnc(NC(=O)Cc3ccc(C#N)c(C(F)(F)F)c3)c2)c2cnccc21 [Example 233, 2-[4-cyano-3-(trifluoromethyl)phenyl]-N-(4-{[1-(propan-2-yl)-1H-pyrrolo[3,2-c]pyridin-3-yl]carbonyl}pyridin-2-yl)acetamide] | 24.4 nM
CC(C)(CO)n1cc(C(=O)c2cc(NC(=O)Cn3ccc(C4CC4)n3)ccn2)c2cnccc21 [Example 234, 2-(3-cyclopropyl-1H-pyrazol-1-yl)-N-(2-{[1-(1-hydroxy-2-methylpropan-2-yl)-1H-pyrrolo[3,2-c]pyridin-3-yl]carbonyl}pyridin-4-yl)acetamide] | 16.5 nM
CC(C)(CO)n1cc(C(=O)c2cncc(NC(=O)Cc3cccc(C(F)(F)F)c3)c2)c2cnccc21 [Example 235, N-(5-{[1-(1-hydroxy-2-methylpropan-2-yl)-1H-pyrrolo[3,2-c]pyridin-3-yl]carbonyl}pyridin-3-yl)-2-[3-(trifluoromethyl)phenyl]acetamide] | 2.87 nM
CC(C)(CO)n1cc(C(=O)c2cncc(NC(=O)Cn3ccc(C(F)(F)F)n3)c2)c2cnccc21 [Example 236, N-(5-{[1-(1-hydroxy-2-methylpropan-2-yl)-1H-pyrrolo[3,2-c]pyridin-3-yl]carbonyl}pyridin-3-yl)-2-[3-(trifluoromethyl)-1H-pyrazol-1-yl]acetamide] | 43.1 nM
CC(C)(CO)n1cc(C(=O)c2cncc(NC(=O)Cn3cc(C4CC4)nn3)c2)c2cncc(F)c21 [Example 240, 2-(4-cyclopropyl-1H-1,2,3-triazol-1-yl)-N-(5-{[7-fluoro-1-(1-hydroxy-2-methylpropan-2-yl)-1H-pyrrolo[3,2-c]pyridin-3-yl]carbonyl}pyridin-3-yl)acetamide] | 24 nM
N-(2-{[1-(1-hydroxypropan-2-yl)-1H-pyrrolo[3,2-c]pyridin-3-yl]carbonyl}pyridin-4-yl)-2-[4-(trifluoromethyl)phenyl]acetamide [Example 84] | 141 nM
N-(4-{[1-(propan-2-yl)-1H-pyrrolo[3,2-c]pyridin-3-yl]carbonyl}pyridin-2-yl)-2-[4-(trifluoromethoxy)phenyl]acetamide [Example 168] | 14.7 nM
N-(5-{[7-fluoro-1-(1-hydroxypropan-2-yl)-1H-pyrrolo[3,2-c]pyridin-3-yl]carbonyl}pyridin-3-yl)-2-[4-(trifluoromethyl)-1H-1,2,3-triazol-1-yl]acetamide [Example 214] | 93.1 nM
N-(5-{[7-fluoro-1-(1-hydroxypropan-2-yl)-1H-pyrrolo[3,2-c]pyridin-3-yl]carbonyl}pyridin-3-yl)-2-[4-(trifluoromethyl)phenyl]acetamide [Example 209] | 264 nM
